{
  "source": "patent US20050153304A1",
  "about": "“Multivariate profiling of complex biological regulatory pathways” (Government of the USA, as represented by the secretary, …, priority 2003, published 2005)",
  "key": {"NF-kappa B pathway": {"test_system": "NF-kappa B pathway", "assay": "Luciferase reporter transfection in mitogen-stimulated Jurkat T-cells, principal component analysis of mitogen profiles", "format": "cell-based, human", "conditions": "co-stimulation with anti-CD28, FIG. 4 and FIG. 6", "description": "(§1) A human acute lymphoblastic T-cell leukemia cell line (Jurkat) was individually electroporated with 5 ug of a luciferase reporter plasmids driven by the interleukin 2 (IL-2) promoter, the NFAT element of the IL-2 promoter, the CD28RE-AP1 element of the IL-2 promoter, a consensus AP-1 element, a consensus NF-kappa B element, a consensus CRE element and the co-transfection of a Gal4 binding site or upstream activation sequence (UAS) driving a luciferase reporter in combination with either a full length Gal4-p300 fusion (FL) or a N-terminal domain fusion of p300 (amino acids 1-743). Electroporation was performed in a 96 well format with a BTX 96-well gold electrode. Cells were electroporated at 10 millions cells per well with each experiment repeated in triplicates. Following electroporation cells were stimulated with various combination of T-cell mitogens (see Table 1). Cells were harvested 5 hours after stimulation and assayed for luciferase activity by a 96 well luminometer. Data were normalized first for fold activation for each experiment and then inputted into an activation matrix where the data were normalized to percent maximum stimulation. […]"}, "[1]": {"test_system": "Jurkat T-cells, 8 promoter elements", "assay": "Principal component analysis of vector differences between mitogen profiles in the absence and presence of drug (8 promoter elements)", "format": "cell-based, human", "conditions": "subtraction vectors versus control mitogen profiles, FIG. 5", "description": "The mitogen activation profiles under control conditions shown in red FIG. 4 were used to calculate subtraction vectors for each profile in the presence of a drug treatment. These vectors were then analyzed by PCA to show similarities and differences in targeting.\nas §1, with “luminometer.” for “luminometer. Data were normalized first for fold activation for each experiment and then inputted into an activation matrix where the data were normalized to percent maximum stimulation.”"}},
  "data": [
    {"substance": "IGF-1: insulin-like growth factor one, a peptide growth factor", "values": [
      {"measurement": "effect on NF-kappa B pathway in activated T-cells", "setting": "NF-kappa B pathway", "value": "synergies with anti-CD28 stimulation in activated T-cells to upregulate the NF-kappa B pathway"},
      {"measurement": "drug targeting profile (similarity of pathways targeted)", "setting": "[1]", "value": "appear to target the same pathway"}
    ]}
  ]
}
